Our source for the melting point values is a melting point compilation (Tetko et al.; mined from patent text by program, amines drawn as free bases though some values may be those of a salt).

A value given as a limit tells only on which side of the number the result lay.

`CCCCCCCCCCCCCCCCCCOc1cc(OCc2ccccc2)cc(N(CC(=O)OC)CC(=O)OC)c1` showed a melting point of 66 to 68 °C.

On to `CN(C)CCC1CCC2(CC1)Nc1ccc(Cl)cc1S(=O)(=O)N2` (configuration not stated), for which the melting point lay within 234 to 235 °C. The result for `CN1[C@@H](c2ccc(O)cc2)c2ccccc2S1(=O)=O` reads 178 to 180 °C; that for `CC(C)(O)Cn1c(CO)nc2c(N)nc3cc(CCS(C)(=O)=O)ccc3c21`, 221 to 223 °C. `Cn1ccnc1Sc1ccc(Nc2c(C#N)cnc3cc(-c4ccc(CN5CCOCC5)nc4)ccc23)cc1Cl` returned a melting point of 233 to 235 °C. The result for `NC(=O)c1c(Cl)c(-c2ccccc2)n2c1CN(S(=O)(=O)c1ccc(F)cc1)CC2` reads 177 to 178 °C; that for `CC(=O)OC1CSC(Oc2ccc3sc(C)nc3c2)C(OC(C)=O)C1OC(C)=O` (configuration not stated), 158 °C.

Take `CC(C)(C)OC(=O)C1CCC2(CCn3c(cc4ccccc43)C2)C1=O` (configuration not stated): the melting point was 129 to 131 °C. As for `O=C(c1cccc([N+](=O)[O-])c1)c1ccc(Oc2ccccc2)c([N+](=O)[O-])c1`, the figure is 135 to 136 °C; as for `CC1(C)CC(=O)C(C(=O)Nc2cccc(C(F)(F)F)c2)C(=O)O1` (configuration not stated), 150 °C. Regarding `Nc1nc(SCCC(=O)c2ccccc2)c2[nH]cnc2n1`, the melting point lay in the range of 204 to 205 °C.

`COc1ccc(CCC2CN(C3=Nc4cc(F)ccc4Nc4sc(C)cc43)CCN2C)cc1` (configuration not stated) yielded a melting point of 180 to 182 °C. As for `Nc1ccc(O)c(N)c1`, the figure is 78 °C. The result for `Cc1ccc(S(=O)C(C(=O)OC(C)(C)C)C(O)CC(OC2CCCCO2)c2ccc(Oc3ccccc3)cc2)cc1` (configuration not stated) reads 140 to 145 °C; that for `CC(O)(c1cccc(Cl)c1)c1cc(Cl)ccc1O` (configuration not stated), 125 °C. The result for `CCCCOc1ccc(S(=O)(=O)Nc2onc(C)c2Br)cc1` reads 98 to 100 °C; that for `CC(C)(CC(O)(Cn1cc(Cl)c(=O)c2sccc21)C(F)(F)F)c1cc(-c2cncnc2)cc2c1OCC2` (configuration not stated), 218 to 219 °C; that for `N#Cc1cc([N+](=O)[O-])ccc1Oc1c(F)c(F)cc(F)c1F`, 152 to 154 °C. In turn, `Cc1nc(Cn2c(NC3CCN(CCc4c(C)nc5sccn5c4=O)CC3)nc3ccccc32)cs1` yielded a melting point of 130 °C. As for `CCC(C(=O)OC)[C@@H](C)O` (some centres not stated), the figure is 72.4 to 73.3 °C. As for `CC1NC(=O)COC1=O` (configuration not stated), the figure is 139 to 141 °C; as for `CCc1ccccc1NC(=O)C(C#N)=C(C)N(C)C`, 79 to 81.5 °C; as for `O[C@H](CCl)CN=Cc1ccccc1`, 46 °C. The result for `Cc1c(O)cc2c(c1Cl)CCC2(C)C` reads 109 to 110 °C. Compound `Cc1nn(C)c2cc(-c3ccc(F)cc3)nc(-c3ccc4c(c3)OCO4)c12` gave a melting point of 166 to 168 °C. As for `Oc1ncnc2c(-c3ccc(Cc4ccc(Cl)cc4)cc3)cnn12`, the figure is 292 to 296 °C; as for `CN(C(=O)OC(C)(C)C)c1cc(OCc2ccccc2)ccc1[N+](=O)[O-]`, 108 to 110 °C.

In turn, `CCn1ncc2c1ncc1c(OCCCN(C)C)nc3cc(C)nn3c12` displayed a melting point of 62 to 64 °C. As for `O=C(NO)[C@H](CNS(=O)(=O)c1ccc(OCc2ccc3ccccc3c2)cc1)N1CCCCC1`, the figure is 106 °C; as for `CCCNCC(O)c1ccc(F)cc1` (configuration not stated), 58.6 to 78.8 °C. The result for `CSc1ncc2c(n1)N(Cc1ccc(F)c(F)c1)c1ccccc1-n1nnnc1-2` reads 281 to 283 °C. `CCCCc1cc(C#N)sc1-c1ccc2c(c1)C(C)(C)OC(=S)N2` had a melting point of 174 to 175 °C.

As to `CSc1cc(C(F)(F)F)ccc1C(=O)O`, the melting point is 178 to 179 °C. The compound `Cc1csc(-c2ncccc2C(=O)c2ccccn2)c1` yielded a melting point of 122 to 123 °C. The result for `CCCCCCC(C)(C)c1ccc(C2=CCCN(C)C2)c(O)c1` reads 126 to 127 °C; that for `Cc1c(N)cccc1-c1cn(C)c(=O)c(Nc2ccc(C(=O)N3CCOCC3)cc2)n1`, 274 to 275 °C.

The compound `CS(=O)(=O)c1ccc(-c2cnn(CC(F)(F)F)c(=O)c2-c2ccc(Cl)cc2)cc1` gave a melting point of 55 to 57 °C. The result for `Cc1ccc(S(=O)(=O)n2c(I)cc3cccnc32)cc1` reads 105 to 107 °C; that for `COc1cccc(CN2CCC(NC(=O)c3cnc4c(OC)cccc4c3Nc3ccc(C(=O)NC4CCN(Cc5ccccc5)CC4)cc3)CC2)c1`, 135 to 142 °C; that for `Cc1c(C(=O)O)oc2c(C(C)(C)C)ccc(O)c12`, 219 to 222 °C.

For the compound `O=c1c2cccnc2n(-c2cccc([N+](=O)[O-])c2)c(=O)n1Cc1ccccc1`, the melting point lay in the range of 219 to 220 °C. As for `COc1cc(/C=C/C(=O)O)cc(OC)c1OCc1ccccc1`, the figure is 102 °C. The result for `COc1ccc(C(=O)NC(=O)Nc2cc3c(cc2F)/C(=C/c2[nH]c(C)c(CCC(=O)O)c2C)C(=O)N3)c(F)c1` reads over 300 °C.

As for `Cc1oc(-c2ccccc2)nc1COc1cccc2cc(NS(=O)(=O)C(F)(F)F)ccc12`, the melting point fell in the range of 192 to 194 °C. As for `O=C1c2cccc3cccc(c23)C(=O)N1C1OC(CO)C(O)C(O)C1O` (configuration not stated), the figure is 285 to 286 °C; as for `COc1ccc2c(c1)CN(C(=O)CN1CCCC1)N=C2Cc1c(Cl)cncc1Cl`, 148 to 150 °C. The result for `Fc1ccc(NC(=S)Nc2ncccc2OCc2c(F)cccc2Cl)cc1` reads 146 to 148 °C.

In the case of `Cn1c(=O)n(Cc2ccccc2)c(=O)c2cc(C(=O)O)ccc21`, the melting point was determined as 227 °C. `COc1ccc2c(c1)C(O)(c1ccccn1)CC(C)(C)CO2` (configuration not stated) registered a melting point of 98 °C.

For `CS(=O)(=O)c1ccc(/C(=C(\CCO[N+](=O)[O-])C(=O)O)c2ccc(Cl)cc2)cc1`, the melting point fell in the range of 143 to 144 °C.

`COCc1cnc2c(NC(=O)c3c(Cl)cccc3Cl)cccc2c1N1CCN(C)C1=O` had a melting point of 199 to 201 °C.

Regarding `CC(C)(C)c1cc(OCc2ccc(C#N)cc2)cc(C(C)(C)C)c1O`, the melting point fell in the range of 166 to 169 °C. As for `O=S(Cc1[nH]c2ccccc2c1Sc1ccccc1)c1ccccc1` (configuration not stated), the figure is 71 to 74 °C; as for `Cc1cccc2c(C#N)csc12`, 82 to 84 °C. For `CC(C)(C)NC(=O)C1C(C=C(Cl)Cl)C1(C)C` (configuration not stated), the melting point was in the range of 108 to 109 °C. As for `O=C1NC(=O)C(Cc2ccc(OCc3nc4cccnc4n3Cc3ccc(-c4ccccc4)cc3)cc2)S1` (configuration not stated), the figure is 189 to 191 °C; as for `O=C(NCCC(F)=C(F)F)C(=O)NCCC(F)=C(F)F`, 139 to 141 °C.

On to `Cc1c(Cl)cccc1NC(=O)NCc1ccc2c(c1)CN(C1CCC(=O)NC1=O)C2=O` (configuration not stated), for which the melting point fell in the range of 252 to 254 °C. As for `Nc1ccc2c(c1)CCN(Cc1ncn[nH]1)C2`, the figure is 191 to 193 °C; as for `CN(C)C(=O)c1cccc(C(=O)Nc2cccc3cc(Br)cnc23)c1`, 157 °C; as for `CC(C)C(C)CNC(=O)c1ccc2c(c1)N(C(C)CN1CCCC1)c1ccccc1S2` (configuration not stated), 138 °C. The result for `CCOc1ccccc1C=C1CCc2c1oc1ccc(C(=O)O)cc1c2=O` reads 300 to 302 °C; that for `CCC(CC)Nc1c(Br)c(CBr)nc2c1nnn2-c1c(C)cc(C)cc1C`, 115 to 117 °C; that for `CC1CCC(c2cccc(NC(=O)N3CCC4(CC3)OCCO4)c2)(N2CCN(c3ccccc3)CC2)CC1` (configuration not stated), 245 to 247 °C. As for `Cc1ccc(SCc2ccc(OC(F)(F)F)cc2)cc1`, the figure is 74 to 76 °C; as for `Cc1oc(-c2ccccc2)nc1COc1ccc2cc(C=CC=C3SC(=O)NC3=O)ccc2c1`, 267 to 268 °C; as for `C(#Cc1ccc2[nH]ccc2c1)CCN1CC=C(c2ccccc2)CC1`, 173 to 174 °C.

`OC1(C(F)(F)F)ON=C(c2ccc(Cl)cc2)C1Cl` (configuration not stated) came in with a melting point of 126 to 127 °C. The result for `CC(C)(C)OC(=O)N1CCCN(c2ccc([N+](=O)[O-])cc2)CC1` reads 128 to 130 °C; that for `Cc1ccc(C(=O)NC(N2CCN(c3cccc(F)c3)C2=S)C(Cl)(Cl)Cl)cc1` (configuration not stated), 184 to 186 °C; that for `CCOC(=O)C(C(=O)CCCCC(C)C)C1c2ccccc2C(=O)N1c1ccc2ccc(Cl)nc2n1` (configuration not stated), 136 °C.

`COC(=O)c1ccc(Cc2cn(C)c3ccc(CCNC(=O)N4CCOCC4)cc23)c(OC)c1`: the melting point was 160 to 161 °C.

In turn, `Cc1csc(N2CCN(Cc3ccc(C(=O)NCc4ccccc4)cc3)C2=O)n1` displayed a melting point of 185 to 186 °C. For the compound `CCC(=O)N1CCc2ccccc2C(Oc2ccc(C(F)(F)F)cc2)C1` (configuration not stated), the melting point was 109 to 110 °C.

`O=C1OC(Cc2ccccc2)=NC1=Cc1cccs1` came in with a melting point of 193 to 195 °C.

`Oc1nc2cccccc-2n1` gave a melting point of 245 °C. The result for `Cc1cc2c(c(C)c1C)OCC2` reads under 50 °C. As for `CC(C)(CCc1cc2cc(Cl)ccc2n1S(=O)(=O)c1ccccc1)C(=O)O`, the figure is 242 °C.

The compound `NNc1ccc(C(=O)c2ccccc2)cc1[N+](=O)[O-]` yielded a melting point of 163 to 164 °C. As for `O=C1NC(=O)C(Cc2cc(O)c(O)c([N+](=O)[O-])c2)C(=O)N1`, the figure is 263 to 266 °C; as for `O=C(C=Cc1ccc(NC(=O)c2ccc3ccccc3c2)cc1)NO`, 231 to 233 °C; as for `O=C(CN1CC(c2ccc(Cl)cc2)CC1=O)Oc1c(Cl)c(Cl)c(Cl)c(Cl)c1Cl` (configuration not stated), 135 to 136 °C.

In turn, `CS(=O)(=O)Nc1cc2oc(NC=O)cc(=O)c2cc1Oc1ccccc1` yielded a melting point of 214 to 216 °C. The result for `OC1(Cc2ccccc2F)CCN(Cc2ccccc2)C1` (configuration not stated) reads 75 to 77 °C; that for `Oc1ccc(-c2nc3cc(O)ccc3o2)cc1`, 264 to 267 °C. As for `C(=C\c1nc(COc2ccc(CCCCn3cnc4ccccc43)cc2)co1)/c1ccccc1`, the figure is 148 to 149 °C; as for `CCOc1nc2ccccc2nc1N(CC)C(=O)N1CCN(c2cc(Cl)cc(Cl)c2)CC1`, 115 to 117 °C.
